Source: patent US10287276B2, “Heteroaryl-1,2,4-triazole and heteroaryl-tetrazole compounds for controlling ectoparasites” (Elanco Tiergesundheit AG, priority 2016, dated 2019)

Legend:
[1] = test system: Ctenocephalides Felis (Cat Flea); experiment: Activity in vitro against Ctenocephalides felis (cat flea), Assay A; conditions: Ctenocephalides felis; at 100 ppm; adult fleas fed on treated blood for 24 h; dead fleas counted; read-out: efficacy (EC80)
Method: Activity In Vitro Against Ctenocephalides Felis (Cat Flea)—Assay A
A mixed adult population of fleas is placed in a suitably formatted 96-well plate allowing fleas to access and feed on treated blood via an artificial feeding system. Fleas are fed on treated blood for 24 h, after which the compound effect is recorded. Insecticidal activity is determined on the basis of the number of dead fleas recovered from the feeding system.

[2] = test system: Lucilla Cuprina (Australian sheep blowfly); experiment: Activity in vitro against Lucilla cuprina (Australian sheep blowfly), Assay A; conditions: Lucilia cuprina, 96 h; at 32 ppm; eggs on agar-based medium, 4 days at 28° C. and 60% relative humidity; read-out: efficacy (EC80)
Method: Activity in vitro against Lucilla Cuprina (Australian sheep blowfly)—Assay A
Freshly laid blowfly eggs are used to seed a suitably formatted microplate containing the test substances to be evaluated for antiparasitic activity. Each compound is tested by serial dilution in order to determine its minimum efficacy dose. The test compounds are embedded in an agar-based nutritive medium allowing the full development of the eggs into 3rd instar larvae. The incubation lasts for 4 days at 28° C. and 60% relative humidity. Egg-hatching and ensuing larval development are also recorded to identify a possible growth-regulating activity.

[3] = test system: Engorged Female Rhipicephalus microplus (Cattle Tick); experiment: Activity in vitro against engorged female Rhipicephalus microplus (cattle tick), contact test; conditions: 672 h, organophosphorous-resistant Ultimo strain, evaluation 28 days later on mortality, oviposition and hatched larvae, read-out: efficacy (EC80)
Method: Activity In Vitro Against Engorged Female Rhipicephalus microplus (Cattle Tick)
A contact test is performed by pre-coating 6-well microplates with serial dilution of the compound to be evaluated for anti-parasitic activity. 10 engorged female ticks of the organophosphorous-resistant Ultimo strain are distributed to each well in triplicates. Plates are then incubated at 28° C. and 80% relative humidity. Evaluation takes place 28 days later based on mortality, oviposition and hatched larvae. […] Activity In Vivo Against Rhipicephalus sanguineus Nymphs on Mongolian Gerbils (Meriones unguiculatus) (Spray Application)

[4] = test system: Rhipicephalus sanguineus Nymphs; experiment: Activity in vivo against Rhipicephalus sanguineus nymphs on Mongolian gerbils; conditions: topical, 0 h, pour on application day 0, tick number reduction vs placebo, Abbott's formula, read-out: efficacy (EC90)
Method: On day 0, gerbils are treated with the test compound at a given dose by pour on application. On day +1 (+2), the animals are infested with nymphs of R. sanguineus. Ticks are left on the animals until full repletion. Seven days after infestation nymphs dropped off fully engorged are collected and counted. They are kept until molting to also evaluate growth regulating activity of the test compound. Efficacy in killing (and growth regulating) is expressed as a tick number (and molted tick number) reduction in comparison with a placebo treated group, using the Abbott's formula:
n=number of live ticks. T=treated group. Co=control/placebo group.

[5] = test system: Lice (Polyplax serrata); experiment: Activity in vivo against lice (Polyplax serrata) in mice (topical); conditions: pour-on application, live lice on day +4 and +14, Henderson & Tilton formula, read-out: efficacy (EC90)
Method: Activity In Vivo Against Lice (Polyplax serrata) in Mice (Topical) Mice naturally infected with P. serrata are treated with the formulated test compound on day 0 by pour-on application. On day +4 and +14, efficacy is evaluated by counting the number of live lice under a binocular. Efficacy at the two time points is expressed as a comparison of lice numbers counted on the same mouse before treatment, using the Henderson & Tilton formula, taking also into account lice numbers found on mice treated with the empty formulation (placebo group): [formula] n=number of lice, T=treated group, Co=control/placebo group.

[6] = test system: Rhipicephalus sanguineus (Dog Tick); experiment: Activity in vitro against Rhipicephalus sanguineus (dog tick), Assay A, contact test; conditions: Rhipicephalus sanguineus, 168 h, at 100 ppm, adult ticks, 28° C. and 80% relative humidity for 7 days, read-out: efficacy (EC80)
Method: Activity In Vitro Against Rhipicephalus sanguineus (Dog Tick)—Assay A
A contact test is performed by pre-coating microplate with serial dilution of compound allowing evaluating anti-parasitic activity by contact against ticks. A mixed adult tick population is then distributed to each well of the plate and incubated at 28° C. and 80% relative humidity for 7 days, during which the effect of the test compound is monitored. Acaricidal activity is confirmed if and when adult ticks are dead.

[7] = test system: Ctenocephalides Felis (Cat Flea); experiment: Activity in vitro against Ctenocephalides felis (cat flea), Assay B; conditions: Ctenocephalides felis; at 10 ppm in bovine blood; % mortality at 48 hours post infestation; read-out: efficacy (EC50)
Method: Activity In Vitro Against Ctenocephalides Felis (Cat Flea)—Assay B
Test compounds are added to organic bovine blood contained in an artificial feeding container. Compounds with known insecticidal activity are included to serve as positive controls. Newly emerged unfed adult fleas from a laboratory colony are aspirated into each vial. The test cages are maintained using the artificial feeding apparatus to allow ingestion of compound. Fleas are evaluated for % mortality at 48 hours post infestation. Fleas showing normal movement and/or jumping ability are considered viable and those showing no movement are scored as dead.

CC(c1ncnn1-c1ccccn1)N(CC1CC1(F)F)C(=O)c1cc(C(F)(F)F)cc(C(F)(F)F)c1 (stereo not drawn) [Example 16, N-[(2,2-Difluorocyclopropyl)methyl]-N-[1-[2-(2-pyridyl)-1,2,4-triazol-3-yl]ethyl]-3,5-bis(trifluoromethyl)benzamide]
pest or weed control at 100 ppm [1]: > 80% | pest or weed control at 32 ppm [2]: > 80% | pest or weed control at 200 ppm [3]: > 80% | inhibition in vivo at 32 mg/kg [4]: > 90% | inhibition in vivo at 32 mg/kg [5]: > 90%

CC(c1ncnn1-c1ncccn1)N(CCCF)C(=O)c1cncc(C(F)(F)F)c1 (stereo not drawn) [Example 31, N-(3-Fluoropropyl)-N-[1-(2-pyrimidin-2-yl-1,2,4-triazol-3-yl)ethyl]-5-(trifluoromethyl)pyridine-3-carboxamide]
pest or weed control at 100 ppm [1]: > 80% | pest or weed control at 32 ppm [2]: > 80% | pest or weed control at 100 ppm [6]: > 80% | inhibition in vivo at 32 mg/kg [4]: > 90%

CC(c1ncnn1-c1ccccn1)N(CC#N)C(=O)c1cc(C(F)(F)F)cc(C(F)(F)F)c1 (stereo not drawn) [Example 14, N-(Cyanomethyl)-N-[1-[2-(2-pyridyl)-1,2,4-triazol-3-yl]ethyl]-3,5-bis(trifluoromethyl)benzamide]
pest or weed control at 100 ppm [1]: > 80% | pest or weed control at 32 ppm [2]: > 80% | pest or weed control at 100 ppm [6]: > 80% | pest or weed control at 200 ppm [3]: > 80% | inhibition in vivo at 32 mg/kg [4]: > 90%

CC(c1ncnn1-c1ncccn1)N(C)C(=O)c1cccc(C(N)=S)c1 (stereo not drawn) [Example 71, 3-Carbamothioyl-N-methyl-N-[1-(2-pyrimidin-2-yl-1,2,4-triazol-3-yl)ethyl]benzamide]
pest or weed control at 10 ppm [7]: > 50%

CC(c1ncnn1-c1ncccn1)N(CCC(F)(F)F)C(=O)c1cncc(C(F)(F)F)c1 (stereo not drawn) [Example 29, N-[1-(2-Pyrimidin-2-yl-1,2,4-triazol-3-yl)ethyl]-5-(trifluoromethyl)-N-(3,3,3-trifluoropropyl)pyridine-3-carboxamide]
pest or weed control at 100 ppm [1]: > 80% | pest or weed control at 32 ppm [2]: > 80% | pest or weed control at 100 ppm [6]: > 80% | inhibition in vivo at 32 mg/kg [4]: > 90%

C#CCN(C(=O)c1cc(Cl)cc(OC(F)(F)F)c1)C(C)c1ncnn1-c1ncccn1 (stereo not drawn) [Example 36, 3-Chloro-N-prop-2-ynyl-N-[1-(2-pyrimidin-2-yl-1,2,4-triazol-3-yl)ethyl]-5-(trifluoromethoxy)-benzamide]
pest or weed control at 100 ppm [1]: > 80% | pest or weed control at 32 ppm [2]: > 80% | pest or weed control at 100 ppm [6]: > 80% | pest or weed control at 200 ppm [3]: > 80% | inhibition in vivo at 32 mg/kg [5]: > 90%

CC(c1ncnn1-c1ncccn1)N(CC1CC1)C(=O)c1cncc(C(F)(F)F)c1 (stereo not drawn) [Example 28, N-(Cyclopropylmethyl)-N-[1-(2-pyrimidin-2-yl-1,2,4-triazol-3-yl)ethyl]-5-(trifluoromethyl)pyridine-3-carboxamide]
pest or weed control at 100 ppm [1]: > 80% | pest or weed control at 32 ppm [2]: > 80% | pest or weed control at 100 ppm [6]: > 80% | inhibition in vivo at 32 mg/kg [4]: > 90% | inhibition in vivo at 32 mg/kg [5]: > 90%

C[C@@H](c1ncnn1-c1ncccn1)N(CC1CC1)C(=O)c1cc(C(F)(F)F)cc(C(F)(F)F)c1 [Example 49, N-(Cyclopropylmethyl)-N-[(1S)-1-(2-pyrimidin-2-yl-1,2,4-triazol-3-yl)ethyl]-3,5-bis(trifluoromethyl)benzamide]
pest or weed control at 100 ppm [1]: > 80% | pest or weed control at 32 ppm [2]: > 80% | pest or weed control at 100 ppm [6]: > 80% | inhibition in vivo at 32 mg/kg [4]: > 90% | inhibition in vivo at 32 mg/kg [5]: > 90%

CC(c1ncnn1-c1ncccn1)N(CCC(F)(F)F)C(=O)c1cc(Cl)cc(C(F)(F)F)c1 (stereo not drawn) [Example 26, 3-Chloro-N-[1-(2-pyrimidin-2-yl-1,2,4-triazol-3-yl)ethyl]-5-(trifluoromethyl)-N-(3,3,3-trifluoropropyl)benzamide]
pest or weed control at 100 ppm [1]: > 80% | pest or weed control at 32 ppm [2]: > 80% | pest or weed control at 100 ppm [6]: > 80% | inhibition in vivo at 32 mg/kg [4]: > 90%

CC(c1ncnn1-c1ncccn1)N(CCCF)C(=O)c1cc(Cl)cc(C(F)(F)F)c1 (stereo not drawn) [Example 24, 3-Chloro-N-(3-fluoropropyl)-N-[1-(2-pyrimidin-2-yl-1,2,4-triazol-3-yl)ethyl]-5-(trifluoromethyl)benzamide]
pest or weed control at 100 ppm [1]: > 80% | pest or weed control at 32 ppm [2]: > 80% | pest or weed control at 100 ppm [6]: > 80% | pest or weed control at 200 ppm [3]: > 80% | inhibition in vivo at 32 mg/kg [5]: > 90%

C[C@@H](c1ncnn1-c1ccccn1)N(CC1CC1)C(=O)c1cc(C(F)(F)F)cc(C(F)(F)F)c1 [Example 44, N-(Cyclopropylmethyl)-N-[(1S)-1-[2-(2-pyridyl)-1,2,4-triazol-3-yl]ethyl]-3,5-bis(trifluoromethyl)benzamide]
pest or weed control at 100 ppm [1]: > 80% | pest or weed control at 32 ppm [2]: > 80% | pest or weed control at 200 ppm [3]: > 80% | inhibition in vivo at 32 mg/kg [4]: > 90%

CC(NC(=O)c1cccc(C#N)c1)c1ncnn1-c1ncccn1 (stereo not drawn) [Example 52, 3-Cyano-N-[1-(2-pyrimidin-2-yl-1,2,4-triazol-3-yl)ethyl]benzamide]
pest or weed control at 10 ppm [7]: > 50%

CC(c1ncnn1-c1ncccn1)N(CCF)C(=O)c1cc(Cl)cc(C(F)(F)F)c1 (stereo not drawn) [Example 23, 3-Chloro-N-(2-fluoroethyl)-N-[1-(2-pyrimidin-2-yl-1,2,4-triazol-3-yl)ethyl]-5-(trifluoromethyl)benzamide]
pest or weed control at 32 ppm [2]: > 80% | pest or weed control at 200 ppm [3]: > 80% | inhibition in vivo at 32 mg/kg [4]: > 90%

CC(c1ncnn1-c1ccccn1)N(CC1CC1)C(=O)c1cncc(C(F)(F)F)c1 (stereo not drawn) [Example 9, N-(Cyclopropylmethyl)-N-[1-[2-(2-pyridyl)-1,2,4-triazol-3-yl]ethyl]-5-(trifluoromethyl)pyridine-3-carboxamide]
pest or weed control at 100 ppm [1]: > 80% | pest or weed control at 32 ppm [2]: > 80% | pest or weed control at 100 ppm [6]: > 80% | pest or weed control at 200 ppm [3]: > 80% | inhibition in vivo at 32 mg/kg [4]: > 90%

CCCN(C(=O)c1cc(Cl)cc(C(F)(F)F)c1)C(C)c1ncnn1-c1ccccn1 (stereo not drawn) [Example 8, 3-Chloro-N-propyl-N-[1-[2-(2-pyridyl)-1,2,4-triazol-3-yl]ethyl]-5-(trifluoromethyl)benzamide]
pest or weed control at 100 ppm [1]: > 80% | pest or weed control at 32 ppm [2]: > 80% | pest or weed control at 200 ppm [3]: > 80% | inhibition in vivo at 32 mg/kg [4]: > 90%

C#CCN(C(=O)c1cc(C(F)(F)F)cc(C(F)(F)F)c1)C(C)c1ncnn1-c1ccccn1 (stereo not drawn) [Example 15]
pest or weed control at 100 ppm [1]: > 80% | pest or weed control at 32 ppm [2]: > 80% | pest or weed control at 100 ppm [6]: > 80% | pest or weed control at 200 ppm [3]: > 80% | inhibition in vivo at 32 mg/kg [5]: > 90%

C[C@@H](c1ncnn1-c1ncccn1)N(CC1CC1)C(=O)c1cncc(C(F)(F)F)c1 [Example 45, N-(Cyclopropylmethyl)-N-[(1S)-1-(2-pyrimidin-2-yl-1,2,4-triazol-3-yl)ethyl]-5-(trifluoromethyl)pyridine-3-carboxamide]
pest or weed control at 100 ppm [1]: > 80% | pest or weed control at 32 ppm [2]: > 80% | pest or weed control at 200 ppm [3]: > 80% | inhibition in vivo at 32 mg/kg [4]: > 90%
